Measurements as given in PubChem BioAssay (NCI).
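Interpolation was linear, between the two tested concentrations surrounding the appropriate level; five concentrations were tested over 48 hours in 96-well plates. Definition used: TGI = concentration required for complete inhibition of growth.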

Experiments:
Experiment in all cases: NCI anticancer screen, dose series, 48 h
[1] = system: DU-145 prostate
[2] = system: MDA-MB-231 breast
[3] = system: MDA-N
[4] = system: NCI-H23 lung
[5] = system: RXF 393 renal
[6] = system: SF-539 CNS
[7] = system: T-47D breast
[8] = system: U251 CNS
[9] = system: UACC-62 melanoma
[10] = system: BT-549 breast

Structure (SMILES)	TGI [1] [µM]	TGI [2] [µM]	TGI [3] [µM]	TGI [4] [µM]	TGI [5] [µM]	TGI [6] [µM]	TGI [7] [µM]	TGI [8] [µM]	TGI [9] [µM]	TGI [10] [µM]
c1csc(-c2nnc(C34CC5CC(CC(C5)C3)C4)o2)c1	> 100	45.7	> 100	> 100	54.7	40.1	> 100	> 100	> 100	–
Cc1ccc(C2(c3ccc(C)c(O)c3C)CCN(C)CC2)c(C)c1O	> 100	> 100	> 100	> 100	> 100	–	> 100	> 100	> 100	> 100
C=C1[C@H](OCC(C)C)[C@@H](OC(=O)C(C)CC)[C@@H](O)C(C)(C)/C=C/[C@H](C)C(=O)[C@@]2(O)C[C@H](C)[C@H](O)[C@@H]2[C@H]1OC(=O)C(C)CC (some centres undefined)	> 20	> 12.5	> 20	> 15.8	> 20	> 14.9	> 20	> 20	> 20	> 20
COc1cccc(/C=N/n2c(Cc3ccc(Cl)cc3)n[nH]c2=O)c1	> 100	48.2	> 100	> 70.3	11.2	32.6	> 68.2	55.2	> 82.9	57.1
CCOC(=O)C1=CN(C(=O)c2ccccc2)CCC1Cc1ccccc1 (centres undefined)	> 100	64.9	44.4	> 100	61.8	63.6	72.8	51.9	31.4	85.9
O=C1OC(C(O)C(O)C(O)CO)C(O)C1O (centres undefined)	> 100	> 100	–	> 100	> 100	> 100	> 100	> 100	> 100	> 100
Cc1[nH]c(=O)[nH]c(=O)c1C(=O)N(CCO)Cc1ccccc1	> 100	> 100	> 100	> 100	83.6	> 100	> 100	> 100	> 100	> 100
C1=C[C@]2(CCC13OCCO3)COc1ccccc12	> 100	> 100	> 100	99.5	–	–	> 100	> 100	> 100	–
CC(C)C[C@H](NC(=O)[C@H](CCc1ccccc1)NC(=O)c1ccc2ccccc2n1)B(O)O	3.49	0.305	–	0.338	< 0.017	< 0.0225	–	6.11	1.2	0.152
O=[N+]([O-])c1cc(Cl)ccc1S(=O)(=O)c1cc(Cl)cc2c1NCCC2	> 100	> 100	> 100	–	> 100	> 100	–	–	85.8	> 100
CCCN1C(=O)/C(=C(/O)C(=O)OCC)C(c2ccc(OC)c(OC)c2)C1=O (centres undefined)	–	–	–	> 100	> 100	> 100	–	> 100	> 100	–
OC1(c2ccc(Cl)cc2)c2ccccc2C2=NCc3ccccc3CN21 (centres undefined)	34.7	37.9	26.5	23.7	–	24.4	> 61.7	25.1	26.7	44.7
CC12CCC(C1)C(C)(C)C2OC(=O)c1ccccc1C(=O)O (centres undefined)	> 100	> 100	> 100	> 100	> 100	–	> 100	> 100	> 100	> 100
O=C(NNCc1ccccc1O)c1ccccc1O	43.4	> 100	> 100	> 100	> 100	> 100	35	> 100	55.9	–
Cc1nc2sccn2c1C(=O)OCCOCCOCCOCCOC(=O)c1c(C)nc2sccn12	> 100	> 100	> 100	> 100	> 100	> 100	–	> 100	> 100	> 100
CN1N(c2ccccc2)C(=O)C2=NC=C(C#N)C(=N)C21C (centres undefined)	> 100	> 100	> 100	> 100	> 100	> 100	–	> 100	> 100	> 100
C/C(NC(=O)c1ccccc1)=C(/C(=O)c1ccccc1)[C@@H]1OC(C)(C)O[C@@H]1[C@H]1COC(C)(C)O1	> 100	> 100	39.1	93.9	> 100	> 100	–	> 100	> 100	82.4
CC(CC(C)(C)[N+](C)(C)C)[N+](C)(C)C (centres undefined)	> 100	–	> 100	> 100	> 100	> 100	–	> 100	> 100	> 100
Cc1ccc(Nc2ccc(Nc3ccc(C)cc3S(=O)(=O)O)c3c2C(=O)c2ccccc2C3=O)c(S(=O)(=O)O)c1	–	–	–	–	> 100	> 100	–	> 100	> 100	–
CC(=O)OC1C(O)C(C)OC(OC(=O)C2CCC3C(C2)OC2(CC(OC(=O)/C=C/c4ccccc4)C(C)CO2)C32CO2)C1OC1OC(C)C(O)C(O)C1O (centres undefined)	–	–	–	0.22	0.208	0.105	–	0.12	0.114	–
CCc1cc2c(oc3c4ccccc4ccc23)c(=O)[nH]1	> 10	–	> 10	> 10	> 10	> 10	–	> 10	> 10	> 10
Clc1ccc(-c2nn3c(C45CC6CC(CC(C6)C4)C5)nnc3s2)cc1	> 100	> 100	–	> 100	> 100	> 100	> 100	> 100	> 100	–
O=C1C=C(NCCc2cc(Br)c(O)c(Br)c2)C(=O)c2[nH]cnc21	> 100	67.9	33.6	50.8	98	> 100	88.8	> 100	40	–
CCCC1C(C#N)(C#N)C(C#N)=C(N)C1(C)C(C)=O (centres undefined)	> 100	> 100	> 100	> 100	> 100	> 100	> 100	> 100	> 100	–
